Experimental findings from paper PMC5218480 (PLoS ONE, 2017) are described below.

For this assay, the system named is MV-4-11 cells. Description: Gene expression microarray analysis (Affymetrix PrimeView) and GSEA. The assay is classed as cell-based, human. Also on record: RFU PODN (11730768_x_at) / Fold change /veh PODN (11730768_x_at) / RFU LINC00158 (11744669_a_at) / Fold change /veh LINC00158 (11744669_a_at) / RFU DUSP10 (11751237_a_at) / Fold change /veh DUSP10 (11751237_a_at) / RFU ID3 (11757404_x_at) / Fold change /veh ID3 (11757404_x_at) / RFU PLEKHG5 (11737974_s_at) / Fold change /veh PLEKHG5 (11737974_s_at) / RFU LRRC4B (11730491_at) / Fold change /veh LRRC4B (11730491_at) / RFU GIMAP4 (11747438_a_at) / Fold change /veh GIMAP4 (11747438_a_at) / RFU KRT8 (11758183_x_at) / Fold change /veh KRT8 (11758183_x_at) / RFU CNN1 (11734310_a_at) / Fold change /veh CNN1 (11734310_a_at) / RFU VPS37D (11726825_at) / Fold change /veh VPS37D (11726825_at) / RFU C10orf10 (11716522_x_at) / Fold change /veh C10orf10 (11716522_x_at) / RFU KIR2DL2 /// KIR2DL4 /// KIR2DL5A /// KIR2DL5B /// KIR2DS1 /// KIR2DS2 /// KIR2DS3 /// KIR2DS4 /// KIR3DL3 /// KIR3DL3 /// KIR3DS1 (11738374_at) / Fold change /veh KIR2DL2 /// KIR2DL4 /// KIR2DL5A /// KIR2DL5B /// KIR2DS1 /// KIR2DS2 /// KIR2DS3 /// KIR2DS4 /// KIR3DL3 /// KIR3DL3 /// KIR3DS1 (11738374_at) / RFU C1QL1 (11718748_at) / Fold change /veh C1QL1 (11718748_at) / RFU TMPRSS4 (11747572_a_at) / Fold change /veh TMPRSS4 (11747572_a_at) / RFU HAMP (11756126_x_at) / Fold change /veh HAMP (11756126_x_at) / RFU RNFT2 (11725882_a_at) / Fold change /veh RNFT2 (11725882_a_at) / RFU NR4A2 (11747474_a_at) / Fold change /veh NR4A2 (11747474_a_at) / RFU ABCC12 (11746883_a_at) / Fold change /veh ABCC12 (11746883_a_at) / RFU TMEM136 (11760407_x_at) / Fold change /veh TMEM136 (11760407_x_at) / RFU CLDN22 /// WWC2 (11732394_at) / Fold change /veh CLDN22 /// WWC2 (11732394_at) / RFU HLA-DPB1 (11760878_x_at) / Fold change /veh HLA-DPB1 (11760878_x_at) / RFU SPINT1 (11716480_a_at) / Fold change /veh SPINT1 (11716480_a_at) / RFU GAP43 (11754022_s_at) / Fold change /veh GAP43 (11754022_s_at) / RFU A4GNT (11735810_at) / Fold change /veh A4GNT (11735810_at) / RFU PRB3 (11715151_x_at) / Fold change /veh PRB3 (11715151_x_at) / RFU TUBB4B (11761932_at) / Fold change /veh TUBB4B (11761932_at) / RFU CAPN14 (11732068_a_at) / Fold change /veh CAPN14 (11732068_a_at) / RFU TMCC2 (11721928_a_at) / Fold change /veh TMCC2 (11721928_a_at) / RFU IRGQ (11745062_a_at) / Fold change /veh IRGQ (11745062_a_at) / RFU FAM174B (11720279_a_at) / Fold change /veh FAM174B (11720279_a_at) / RFU TMPRSS4 (11748680_a_at) / Fold change /veh TMPRSS4 (11748680_a_at) / RFU FAM212B (11763350_a_at) / Fold change /veh FAM212B (11763350_a_at) / RFU PLEKHG5 (11743358_a_at) / Fold change /veh PLEKHG5 (11743358_a_at) / RFU ZSCAN30 (11745921_a_at) / Fold change /veh ZSCAN30 (11745921_a_at) / RFU CMKLR1 (11741424_a_at) / Fold change /veh CMKLR1 (11741424_a_at) / RFU LOC101060620 /// MAPK8IP1 (11723275_at) / Fold change /veh LOC101060620 /// MAPK8IP1 (11723275_at) / RFU SPTSSB (11747773_x_at) / Fold change /veh SPTSSB (11747773_x_at) / RFU PRSS12 (11739890_at) / Fold change /veh PRSS12 (11739890_at) / RFU BIN1 (11741810_x_at) / Fold change /veh BIN1 (11741810_x_at) / RFU WNT11 (11732464_a_at) / Fold change /veh WNT11 (11732464_a_at) / RFU C10orf10 (11716521_a_at) / Fold change /veh C10orf10 (11716521_a_at) / RFU C5orf56 (11738089_at) / Fold change /veh C5orf56 (11738089_at) / RFU CYB561 (11721691_x_at) / Fold change /veh CYB561 (11721691_x_at) / RFU ANKRD19P (11752326_a_at) / Fold change /veh ANKRD19P (11752326_a_at) / RFU OR2T12 /// OR2T33 /// OR2T8 (11738714_s_at) / Fold change /veh OR2T12 /// OR2T33 /// OR2T8 (11738714_s_at) / RFU VCAN (11748164_a_at) / Fold change /veh VCAN (11748164_a_at) / RFU JSRP1 (11732532_at) / Fold change /veh JSRP1 (11732532_at) / RFU KRTAP10-11 (11738290_x_at) / Fold change /veh KRTAP10-11 (11738290_x_at) / RFU MYO3A (11730013_a_at) / Fold change /veh MYO3A (11730013_a_at) / RFU EBF3 (11725865_a_at) / Fold change /veh EBF3 (11725865_a_at) / RFU CAMK2N1 (11719241_x_at) / Fold change /veh CAMK2N1 (11719241_x_at) / RFU C5orf56 (11738088_a_at) / Fold change /veh C5orf56 (11738088_a_at) / RFU OLFML3 (11715873_a_at) / Fold change /veh OLFML3 (11715873_a_at) / RFU LOC100653217 /// NTM (11731650_a_at) / Fold change /veh LOC100653217 /// NTM (11731650_a_at) / RFU MAPK11 (11762145_a_at) / Fold change /veh MAPK11 (11762145_a_at) / RFU FIZ1 (11724087_x_at) / Fold change /veh FIZ1 (11724087_x_at) / RFU OASL (11726364_x_at) / Fold change /veh OASL (11726364_x_at) / RFU SOX15 (11748057_x_at) / Fold change /veh SOX15 (11748057_x_at) / RFU CD79A (11719716_a_at) / Fold change /veh CD79A (11719716_a_at) / RFU HIST1H1D (11736915_at) / Fold change /veh HIST1H1D (11736915_at) / RFU CASKIN2 (11723855_a_at) / Fold change /veh CASKIN2 (11723855_a_at) / RFU LOC730098 (11760151_x_at) / Fold change /veh LOC730098 (11760151_x_at) / RFU OR4N2 (11742367_at) / Fold change /veh OR4N2 (11742367_at) / RFU PRRT2 (11749266_a_at) / Fold change /veh PRRT2 (11749266_a_at) / RFU SNX32 (11753110_a_at) / Fold change /veh SNX32 (11753110_a_at) / RFU CDHR5 (11726645_a_at) / Fold change /veh CDHR5 (11726645_a_at) / RFU RCAN1 (11760418_a_at) / Fold change /veh RCAN1 (11760418_a_at) / RFU FAM167A (11723789_a_at) / Fold change /veh FAM167A (11723789_a_at) / RFU FAM26E (11764081_at) / Fold change /veh FAM26E (11764081_at) / RFU ISYNA1 (11749810_s_at) / Fold change /veh ISYNA1 (11749810_s_at) / RFU ACY1 (11761880_at) / Fold change /veh ACY1 (11761880_at) / RFU 11764098_at / Fold change /veh 11764098_at / RFU SAMD14 (11745864_x_at) / Fold change /veh SAMD14 (11745864_x_at) / RFU NPB (11741838_a_at) / Fold change /veh NPB (11741838_a_at) / RFU TMPRSS6 (11731388_a_at) / Fold change /veh TMPRSS6 (11731388_a_at) / RFU KRTAP10-2 (11738614_at) / Fold change /veh KRTAP10-2 (11738614_at) / RFU ARHGAP8 /// PRR5-ARHGAP8 (11727945_x_at) / Fold change /veh ARHGAP8 /// PRR5-ARHGAP8 (11727945_x_at) / RFU KRTAP5-7 /// NADSYN1 (11734609_at) / Fold change /veh KRTAP5-7 /// NADSYN1 (11734609_at) / RFU RASL12 (11751679_a_at) / Fold change /veh RASL12 (11751679_a_at) / RFU CDKN2B (11736163_a_at) / Fold change /veh CDKN2B (11736163_a_at) / RFU PRF1 (11729649_at) / Fold change /veh PRF1 (11729649_at) / RFU, ZNF638 /// ZNF638-IT1 / Fold change vs veh, ZNF638 /// ZNF638-IT1 / RFU, PANK3 / Fold change vs veh, PANK3 / RFU, SH3YL1 / Fold change vs veh, SH3YL1 / RFU, ZEB2 / Fold change vs veh, ZEB2 / RFU, NRIP1 / Fold change vs veh, NRIP1 / RFU, PTTG1IP / Fold change vs veh, PTTG1IP / RFU, CAPN2 / Fold change vs veh, CAPN2 / RFU, MED14 / Fold change vs veh, MED14 / RFU, SNORA58 / Fold change vs veh, SNORA58 / RFU, C1orf63 / Fold change vs veh, C1orf63 / RFU, LRRFIP1 / Fold change vs veh, LRRFIP1 / RFU, NDUFAF7 / Fold change vs veh, NDUFAF7 / RFU, SLC12A2 / Fold change vs veh, SLC12A2 / RFU, IBTK / Fold change vs veh, IBTK / RFU, ESF1 / Fold change vs veh, ESF1 / Fold change vs veh, TMEM50B / RFU, TAOK1 / Fold change vs veh, TAOK1 / RFU, ACBD3 / Fold change vs veh, ACBD3 / RFU, TMA16 / Fold change vs veh, TMA16 / RFU, RWDD3 / Fold change vs veh, RWDD3 / RFU, BCAT1 / Fold change vs veh, BCAT1 / RFU, EDEM3 / Fold change vs veh, EDEM3 / RFU, TMEM33 / Fold change vs veh, TMEM33 / RFU, WDR75 / Fold change vs veh, WDR75 / RFU, AHCTF1 / Fold change vs veh, AHCTF1 / RFU, TFRC / Fold change vs veh, TFRC / RFU, ZDHHC17 / Fold change vs veh, ZDHHC17 / RFU, NOM1 / Fold change vs veh, NOM1 / RFU, ARL8B / Fold change vs veh, ARL8B / RFU, ZBTB11 / Fold change vs veh, ZBTB11 / RFU, TAMM41 / Fold change vs veh, TAMM41 / RFU, KIAA1704 /// LOC100996395 / Fold change vs veh, KIAA1704 /// LOC100996395 / RFU, ING1 / Fold change vs veh, ING1 / RFU, TRMT61B / Fold change vs veh, TRMT61B / RFU, FUBP3 / Fold change vs veh, FUBP3 / RFU, TP53 / Fold change vs veh, TP53 / RFU, TNKS2 / Fold change vs veh, TNKS2 / RFU, ZFP14 / Fold change vs veh, ZFP14 / RFU, ACTR2 / Fold change vs veh, ACTR2 / RFU, PPP3R1 / Fold change vs veh, PPP3R1 / RFU, PIK3R1 / Fold change vs veh, PIK3R1 / RFU, HNRNPA1 / Fold change vs veh, HNRNPA1 / RFU, RNF170 / Fold change vs veh, RNF170 / RFU, ZNF28 / Fold change vs veh, ZNF28 / RFU, RNGTT / Fold change vs veh, RNGTT / RFU, OGT / Fold change vs veh, OGT / RFU, BRD1 / Fold change vs veh, BRD1 / RFU, MARS / Fold change vs veh, MARS / RFU, ZNF655 / Fold change vs veh, ZNF655 / RFU, FAHD1 / Fold change vs veh, FAHD1 / RFU, BDP1 / Fold change vs veh, BDP1 / RFU, LRRCC1 / Fold change vs veh, LRRCC1 / RFU, ARID1A / Fold change vs veh, ARID1A / RFU, ZNF146 / Fold change vs veh, ZNF146 / RFU, ZNF330 / Fold change vs veh, ZNF330 / RFU, GPN3 / Fold change vs veh, GPN3 / RFU, C9orf123 / Fold change vs veh, C9orf123 / RFU, N4BP2L2 / Fold change vs veh, N4BP2L2 / RFU, ARFIP1 / Fold change vs veh, ARFIP1 / RFU, FAM179B / Fold change vs veh, FAM179B / RFU, BCL10 / Fold change vs veh, BCL10 / RFU, UHRF1BP1L / Fold change vs veh, UHRF1BP1L / RFU, BET1 / Fold change vs veh, BET1 / RFU, CNOT2 / Fold change vs veh, CNOT2 / RFU, ZNF268 / Fold change vs veh, ZNF268 / Fold change vs veh, ZNF507 / RFU, DGCR2 / Fold change vs veh, DGCR2 / RFU, WDSUB1 / Fold change vs veh, WDSUB1 / Fold change vs veh, HSP90B1 /// MIR3652 / RFU, ADSS / Fold change vs veh, ADSS / RFU, GK / Fold change vs veh, GK / RFU, ZNF148 / Fold change vs veh, ZNF148 / RFU, TAF9 / Fold change vs veh, TAF9 / RFU, SLC1A5 / Fold change vs veh, SLC1A5 / RFU, SLMO2 / Fold change vs veh, SLMO2 / RFU, ABCC4 / Fold change vs veh, ABCC4 / RFU, LOC101060439 /// RAP1B / Fold change vs veh, LOC101060439 /// RAP1B / RFU, RFX7 / Fold change vs veh, RFX7 / RFU, GTPBP10 / Fold change vs veh, GTPBP10 / RFU, CNEP1R1 / Fold change vs veh, CNEP1R1 / RFU, BIVM-ERCC5 /// ERCC5 / Fold change vs veh, BIVM-ERCC5 /// ERCC5 / RFU, ILF3 / Fold change vs veh, ILF3 / RFU 11762660_at / Fold change /veh 11762660_at / RFU VCAN (11757783_s_at) / Fold change /veh VCAN (11757783_s_at) / RFU DDX43 (11728927_at) / Fold change /veh DDX43 (11728927_at) / RFU KRT8 (11758188_x_at) / Fold change /veh KRT8 (11758188_x_at) / RFU NKD1 (11759106_at) / Fold change /veh NKD1 (11759106_at) / RFU SRD5A1 (11742802_a_at) / Fold change /veh SRD5A1 (11742802_a_at) / RFU TPSAB1 /// TPSB2 (11721975_s_at) / Fold change /veh TPSAB1 /// TPSB2 (11721975_s_at) / RFU GSTM3 (11746129_a_at) / Fold change /veh GSTM3 (11746129_a_at) / RFU IL23R (11737362_x_at) / Fold change /veh IL23R (11737362_x_at) / RFU TMEM51 (11727254_a_at) / Fold change /veh TMEM51 (11727254_a_at) / RFU PIWIL2 (11732686_x_at) / Fold change /veh PIWIL2 (11732686_x_at) / RFU ORM1 (11744905_x_at) / Fold change /veh ORM1 (11744905_x_at) / RFU CCDC152 (11743942_at) / Fold change /veh CCDC152 (11743942_at) / RFU ECM1 (11717891_a_at) / Fold change /veh ECM1 (11717891_a_at) / RFU IL23R (11748794_a_at) / Fold change /veh IL23R (11748794_a_at) / RFU TNFAIP8L3 (11732012_x_at) / Fold change /veh TNFAIP8L3 (11732012_x_at) / RFU MBOAT4 (11741988_at) / Fold change /veh MBOAT4 (11741988_at) / RFU 11764193_at / Fold change /veh 11764193_at / RFU TMEM53 (11763286_at) / Fold change /veh TMEM53 (11763286_at) / RFU MAGEB2 (11727129_at) / Fold change /veh MAGEB2 (11727129_at) / RFU TMEM200A (11744735_a_at) / Fold change /veh TMEM200A (11744735_a_at) / RFU CCDC152 (11751479_a_at) / Fold change /veh CCDC152 (11751479_a_at) / RFU FAM211A (11726209_a_at) / Fold change /veh FAM211A (11726209_a_at) / RFU RGS16 (11746705_a_at) / Fold change /veh RGS16 (11746705_a_at) / RFU VCAN (11755009_s_at) / Fold change /veh VCAN (11755009_s_at) / RFU RHOB (11743442_s_at) / Fold change /veh RHOB (11743442_s_at) / RFU RGS16 (11720943_a_at) / Fold change /veh RGS16 (11720943_a_at) / RFU RGS16 (11720944_at) / Fold change /veh RGS16 (11720944_at) / RFU, VPS4B / Fold change vs veh, VPS4B / RFU, CREB1 / Fold change vs veh, CREB1 / RFU, DNAJC13 / Fold change vs veh, DNAJC13 / RFU, GNAQ / Fold change vs veh, GNAQ / RFU, CDK5R1 / Fold change vs veh, CDK5R1 / RFU, ZRANB3 / Fold change vs veh, ZRANB3 / RFU, CUL4A / Fold change vs veh, CUL4A / RFU, CCNY / Fold change vs veh, CCNY / RFU, UFL1 / Fold change vs veh, UFL1 / RFU, COG3 / Fold change vs veh, COG3 / RFU, DIAPH2 / Fold change vs veh, DIAPH2 / RFU, SKA2 / Fold change vs veh, SKA2 / RFU, AFF3 / Fold change vs veh, AFF3 / RFU, LMF1 / Fold change vs veh, LMF1 / RFU, IPO11 / Fold change vs veh, IPO11 / RFU, DFFB / Fold change vs veh, DFFB / RFU, FOXP1 / Fold change vs veh, FOXP1 / RFU, CARD8 / Fold change vs veh, CARD8 / RFU, STRN3 / Fold change vs veh, STRN3 / RFU, ADK / Fold change vs veh, ADK / RFU, RASSF2 / Fold change vs veh, RASSF2 / RFU, WIPF1 / Fold change vs veh, WIPF1 / RFU, LARP1B / Fold change vs veh, LARP1B / RFU, RASA1 / Fold change vs veh, RASA1 / RFU, RB1 / Fold change vs veh, RB1 / RFU, PPFIA1 / Fold change vs veh, PPFIA1 / RFU, MAT2A / Fold change vs veh, MAT2A / RFU, CCT5 / Fold change vs veh, CCT5 / RFU, WDR92 / Fold change vs veh, WDR92 / RFU, CUX1 / Fold change vs veh, CUX1 / RFU, TTC7A / Fold change vs veh, TTC7A / RFU, TMEM135 / Fold change vs veh, TMEM135 / RFU, DEPTOR / Fold change vs veh, DEPTOR / RFU, CPM / Fold change vs veh, CPM / RFU, DNAJB6 / Fold change vs veh, DNAJB6 / RFU, CACNA2D3 / Fold change vs veh, CACNA2D3 / RFU, DTX4 / Fold change vs veh, DTX4 / RFU, TFCP2 / Fold change vs veh, TFCP2 / RFU, GMCL1 /// GMCL1P1 / Fold change vs veh, GMCL1 /// GMCL1P1 / RFU, AEBP2 / Fold change vs veh, AEBP2 / RFU, SNHG1 /// SNORD22 /// SNORD25 /// SNORD26 /// SNORD27 /// SNORD28 /// SNORD29 /// SNORD31 / Fold change vs veh, SNHG1 /// SNORD22 /// SNORD25 /// SNORD26 /// SNORD27 /// SNORD28 /// SNORD29 /// SNORD31 / Fold change (Aza/veh), C12orf56 (ProbeSet 11735607_a_at) / Fold change (ACY-1035/veh), C12orf56 (ProbeSet 11735607_a_at) / Fold change (Aza/veh), FGFR1OP (ProbeSet 11751329_s_at) / Fold change (ACY-1035/veh), FGFR1OP (ProbeSet 11751329_s_at) / Fold change (Aza/veh), VPS36 (ProbeSet 11739960_a_at) / Fold change (ACY-1035/veh), VPS36 (ProbeSet 11739960_a_at) / RFU SYPL1 (11715823_x_at) / Fold change /veh SYPL1 (11715823_x_at) / RFU IGFBP7 (11715501_s_at) / Fold change /veh IGFBP7 (11715501_s_at) / RFU REEP3 (11722064_at) / Fold change /veh REEP3 (11722064_at) / RFU IGLL1 (11728026_x_at) / Fold change /veh IGLL1 (11728026_x_at): dose or concentration left out as unconfirmed. As to conditions: ProbeSet 11729173_a_at; LIST D.

For `Nc1ccc(-c2cccs2)cc1NC(=O)c1ccc2c(c1)cc(C1CC1)n2CCN1CCOCC1` [ACY-1035], the “Fold change vs veh, SKA2” value is reported as 0.84.
